# Laboratory results published in patent publication US20260294874A1, “COMPOSITIONS COMPRISING MODULATORS OF RIBONUCLEOPROTEIN GRANULE FORMATION AND DISSOLUTION AND METHODS OF USE THEREOF” (University of Virginia Patent Foundation, priority 2023, published 2026).
# Read-outs that look alike come from different tables or passages of the source.
# Columns and labels:
# [1] = test system: stress granules and P-bodies; conditions: literature, cited from earlier work
# [2] = test system: P-bodies (EDC4 foci) in HEK293T cells; assay: Immunofluorescence phenotypic screen for P-bodies (α-EDC4) in glucose-deprived HEK293T cells; format: cell-based
# Protocol: (§1) SuTEx compound treatments. Prior to treatments, cells were washed twice with warm phosphate-buffered saline (PBS) and exchanged with serum-free DMEM (supplemented with 1% L-glutamine) for at least 30 minutes at 37° C. with 5% CO2. Compounds were then added as 1000×DMSO stocks (10 μL for 10 cm dishes and 3 μL for 6-well dishes), plates were mixed gently, and cells were incubated for two hours. All compounds were thoroughly vortexed and sonicated for five minutes prior to addition to ensure complete solvation. For microscopy experiments, cultures were seeded at 150,000 cells in 3 mL of DMEM in 6-well THERMO SCIENTIFIC™ BIOLITE™ brand microwell plates (Catalog No. 12556004; Thermo Fisher Scientific Inc., Waltham, Massachusetts. United States of America). For collection, media was aspirated, and cells were washed once with cold PBS before scraping from plates. Cells were centrifuged at 500×g at 4° C. for 5 minutes and supernatant was removed. Cell pellets were resuspended in cold PBS (1 mL) and centrifuged at 1,400×g at 4° C. for 3 minutes. Supernatant was again removed, and pellets were then snap-frozen in liquid nitrogen and stored at −80° C. until needed.
# (§2) Immunofluorescence. Immunofluorescence (IF) of HEK293T cells was performed as previously described in Ciancone et al., 2022. HeLa cells were seeded at 9.0×10^4 in a 24-well plate with 12-mm glass coverslips. The next day, the cells were treated with 25 μM SuTEx probe for 2 hours in DMEM medium without FBS. The cells were then treated with 75 μM NaAsO2 for 30 minutes and fixed with 3% paraformaldehyde in PBS for 15 minutes at room temperature (RT) and washed with PBS twice. The fixed cells were permeabilized with PBST (0.1% Triton X-100) for 15 minutes at room temperature and blocked with 5% goat serum in PBST for 30 minutes at RT. The cells were incubated with anti-G3BP1 antibody H-10 (Catalog No. sc-365338 at 1:200 dilution; Santa Cruz Biotechnology, Inc., Dallas, Texas, United States of America) for 2 hours at RT and washed with PBST (0.1% Tween-20) for 5 minutes three times. Next, cells were incubated with goat anti-mouse Alexa 594 antibody (Catalog No. 115-585-003 at 1:800 dilution; Jackson ImmunoResearch, West Grove, Pennsylvania, United States of America) for 30 minutes at RT. The cells were washed twice with PBST, stained with Hoechst 33342 (Catalog No. H3570 at […]; Thermo Fischer Scientific) in PBST for 5 minutes, and washed with PBS twice for 5 minutes. The coverslips were mounted in PROLONG™ Gold AntiFade Mountant (Catalog No. P36930, Thermo Fisher Scientific) and imaged using NIS Elements AR software and a Nikon Eclipse Ti microscope equipped with a ×100 objective and CMOS camera. […] A CellProfiler pipeline was developed to quantify the number of stress granules under each condition. Briefly, cells were recognized as blue^+ (nuclei) red^+ (G3BP1) objects, and the red^+ granules that meet the shape and size threshold were identified and counted. Cells on the border of linages were excluded from the analysis for more accurate quantification.
# Data Analysis—Microscopy. All slides were blinded for imaging. Leica SP5X images were analyzed using Fiji (ImageJ). Custom macros were written for analysis and can be obtained upon request. To elaborate, images were split into channels based on the different laser wavelengths measured. Image stacks were then combined using ‘Z-Project’ with an average intensity parameter and a threshold was applied to exclude noise based on the negative control (no EDC4 antibody). The ‘Analyze Particles’ function was used with relevant size and circularity constraints (0.85-1.00) to count the number of foci, with total PBs having a diameter of >150 nm, and large PBs>450 nm. The number of foci was normalized to the number of cells (defined by a DAPI stain count) in each linage, and the number of foci per cell was averaged across technical replicates. Every sample had at least two technical replicates and two independent biological replicates. […]
# [3] = test system: stress granules (G3BP1 foci) in HeLa cells; assay: Immunofluorescence phenotypic screen for stress granules (α-G3BP1) in stressed HeLa cells; format: cell-based; conditions: 25 μM, 2 h
# Protocol: as §1, §2
# We used immunofluorescence (IF) detection for phenotypic screening of SuTEx compound activity on stress-induced PB and SG levels in cells (FIG. 1B). PBs were induced through glucose deprivation of HEK293T cells and detected by immunofluorescence with anti-enhancer of mRNA-decapping protein 4 (EDC4) as previously described (Kedersha & Anderson, 2007; Ciancone et al., 2022) (~4 vs 2 PBs/cell in −glucose and +glucose conditions, respectively; FIG. 8). EDC4 is an established PB marker for mammalian cells and is important for PB formation (Kedersha & Anderson, 2007; Luo et al., 2018). SGs were induced in HeLa cells by [COMPOUND LEFT OUT] treatments and detected by fluorescent staining with anti-Ras GTPase-activating protein-binding protein 1 (G3BP1) antibody (75 μM [COMPOUND LEFT OUT], 30 min; FIG. 9). G3BP1 foci have been used in previous IF studies to identify SGs in cells (Kedersha & Anderson, 2007). […]
# [4] = test system: eIF4A; conditions: literature; cited from earlier work
# [5] = glucose-deprived HEK293T cells, 25 μM, 2 h
Compound,effect on RNP granules (in words) [1],inhibition of eIF4A (in words) [4],further results
O=c1[nH]cc(F)c(=O)[nH]1 [5-fluorouracil],formation of pro-survival SGs in solid tumors,–,–
CC[C@H]1CN2CCc3cc(OC)c(OC)cc3[C@@H]2C[C@@H]1C[C@H]1NCCc2cc(OC)c(OC)cc21 [emetine],disassemble SGs and stress-induced PBs,–,"effect on PB formation (in words) ([2]; emetine 50 nM, 2 h, vs vehicle (water), p<0.001): inhibited PB formation; toxicity (in words) [1]: significant toxicity; effect on RNP granules (in words) ([1]; listed as Emetine): inhibit and even dissociate PBs"
C[C@@H]1C[C@@H]([C@H](O)CC2CC(=O)NC(=O)C2)C(=O)[C@@H](C)C1 [cycloheximide],–,–,toxicity (in words) [1]: significant toxicity
"O=S(=O)(c1ccc(F)cc1)n1cnc(-c2cccnc2)n1 [JWB180, 3-(1-((4-Fluorophenyl)sulfonyl)-1H-1,2,4-triazol-3-yl)pyridine]",–,–,"effect on PBs (in words) [2, 5]: negligible effects; effect on SGs (in words) [3]: negligible effects"
CC(C)C[C@H](NC(=O)[C@H](Cc1ccccc1)NC(=O)c1cnccn1)B(O)O [bortezomib],formation of pro-survival SGs in solid tumors,–,–
C[C@H]1C[C@@]2(O[C@H]3C[C@H]4[C@@H]5CC[C@H]6C[C@H](O)CC[C@]6(C)[C@H]5[C@@H](O)C[C@]4(C)[C@H]3[C@@]2(C)O)OC1(C)C [hippuristanol],induce SGs in an eIF2a-independent manner,inhibit eIF4A,–
"O=S(=O)(c1cccnc1)n1cc(-c2ccccc2F)nn1 [AMC-001, 3-((4-(2-Fluorophenyl)-1H-1,2,3-triazol-1-yl)sulfonyl)pyridine]",–,–,"fold induction at 25 µM ([2]; Homo sapiens, HEK-293T, glucose-deprived HEK293T cells, pretreatment, 25 μM, 2 h, read-out: increase in PBs/cells): > 2; effect on PBs (in words) [2, 5]: statistically significant increase in PBs per glucose-deprived cell; increase in PBs ([2]; glucose-deprived cells, pretreatment): > 200%; effect on SGs (in words) [3]: negligible effects on the number of SGs per cell"
CC[C@]1(O)C[C@@H]2CN(CCc3c([nH]c4ccccc34)[C@@](C(=O)OC)(c3cc4c(cc3OC)N(C)[C@H]3[C@@](O)(C(=O)OC)[C@H](OC(C)=O)[C@]5(CC)C=CCN6CC[C@]43[C@@H]65)C2)C1 [vinblastine],form PBs,–,–
COc1ccc([C@@]23Oc4cc(OC)cc(OC)c4[C@]2(O)[C@H](O)[C@H](C(=O)N(C)C)[C@H]3c2ccccc2)cc1 [rocaglamide A],–,inhibit eIF4A,–
CC(/C=C/C(C)=C/[C@@H]1Cc2nc(cs2)[C@@H](C)C[C@@H](N)CC(=O)O[C@@H](C)C/C(C)=C/C=C\C(=O)O1)=C\CN(C)C [pateamine A],induce SGs in an eIF2a-independent manner,inhibit eIF4A,–
COC(=O)[C@H]1[C@@H](O)[C@@]2(O)c3c(OC)cc(O[C@@H]4O[C@@H]([C@H](O)CO)CO[C@H]4OC)cc3O[C@@]2(c2ccc(OC)cc2)[C@@H]1c1ccccc1 [silvestrol],–,inhibit eIF4A,–
